Data: patent US7405201B2, “Antibacterial macrocycles” (Bayer Healthcare AG, priority 2001, dated 2008)
Converted amounts (≈) assume the structure as drawn. Like-named read-outs stand apart in the source and are kept apart here. Positions of bridges follow the written chain, without caps; N, C: chain ends. Non-standard residues stand in square brackets, D forms with d. Residues, ends and D or L forms follow the SMILES beside them. ξ: configuration not given here. *: point of attachment. Phe(3,5-F2) = N[C@@H](Cc1cc(F)cc(F)c1)C(=O)O; Phe(3-Cl) = N[C@@H](Cc1cccc(Cl)c1)C(=O)O; ξPhe(3,5-F2) = NC(Cc1cc(F)cc(F)c1)C(=O)O; Pro(4R-Me) = C[C@H]1CN[C@H](C(=O)O)C1; Phe(2-F) = N[C@@H](Cc1ccccc1F)C(=O)O; Heptenoyl(2E) = CCCC/C=C/C(=O)*; NMeS = CN[C@@H](CO)C(=O)O; X4 = O=C(/C=C/C1CC=CCC1)*; NMeA = CN[C@@H](C)C(=O)O; X1 = CC(C)/C=C(\F)C(=O)*; X5 = CCCC(C)/C=C/C(=O)*; X2 = CCCCC/C=C/C(=O)*; ξPip = O=C(O)C1CCCCN1; X3 = O=C(C=C1CCC1)*

Legend:
[1] = amide bond, EDC/pentafluorophenol (Pfp ester), then HCl/dioxane, then aq. NaHCO3, dichloromethane, 25.0 °C, 3 steps
[2] = tested on: Enterococcus faecium L 4001; assay: Minimum inhibitory concentration (MIC), liquid dilution test; type: cell-based; conditions: L4001, Müller Hinton broth, 37° C., 18-24 hours, 8-10% of CO2
Method: (§1) Determination of the Minimum Inhibitory Concentration (MIC): The MIC is determined in the liquid dilution test. Overnight cultures of the test microorganisms are diluted 1:5 000 or S. aureus 133 is diluted 1:10 000 in Müller Hinton broth (manufacturer: BBL) and incubated with dilutions of the test substances (dilution stages 1:2). Exceptions are the tests with S. pyogenes Wacker and S. pneumoniae 1707/4, which are carried out in Müller Hinton broth plus 20% bovine serum. The cultures are incubated at 37° C. for 18-24 hours; enterococci and streptococci in the presence of 8-10% of CO2. The lowest substance concentration in each case at which visible bacterial growth no longer takes place is defined as the MIC. […] The compounds show very good antibacterial action against most of the test microorganisms and thus a broad Gram-positive action.

[3] = tested on: Streptococcus pyogenes Wacker; assay: as above; type: cell-based; conditions: Müller Hinton broth plus 20% bovine serum, 37° C., 18-24 hours, 8-10% of CO2
Method: as §1

[4] = tested on: Enterococcus faecalis ICB 27159; assay: as above; type: cell-based; conditions: ICB27159, Müller Hinton broth, 37° C., 18-24 hours, 8-10% of CO2
Method: as §1

[5] = tested on: Staphylococcus aureus 133; assay: as above; type: cell-based; conditions: Müller Hinton broth, overnight culture diluted 1:10 000, 37° C., 18-24 hours
Method: as §1

[6] = tested on: Streptococcus pneumoniae 1707/4; assay: as above; type: cell-based; conditions: Müller Hinton broth plus 20% bovine serum, 37° C., 18-24 hours, 8-10% of CO2
Method: as §1

| Compound | MIC [2] | MIC [3] | MIC [4] | MIC [5] | MIC [6] | ring closure, yield of all isomers ([1]; from C[C@@H]1C[C@@H](C(=O)OC[C@H](NC(=O)OCc2ccccc2)C(=O)O)N(C(=O)[C@H](C)NC(=O)[C@@H]2CCCCN2C(=O)[C@@H]2CCCN2C(=O)OC(C)(C)C)C1, 2.58 mM, 16.0 h) | ring closure, yield of all isomers ([1]; from C[C@H](NC(=O)[C@H](C)N(C)C(=O)[C@@H]1CCCN1C(=O)OC(C)(C)C)C(=O)N1CCC[C@H]1C(=O)OC[C@H](NC(=O)OCc1ccccc1)C(=O)O, 8.9 mM, 2.0 h) |
| --- | --- | --- | --- | --- | --- | --- | --- |
| C[C@@H]1C[C@H]2C(=O)OC[C@H](NC(=O)OCc3ccccc3)C(=O)N3CCC[C@H]3C(=O)N3CCCC[C@H]3C(=O)N[C@@H](C)C(=O)N2C1 | – | – | – | – | – | 60% | – |
| C[C@@H]1NC(=O)[C@H](C)N(C)C(=O)[C@@H]2CCCN2C(=O)[C@@H](NC(=O)OCc2ccccc2)COC(=O)[C@@H]2CCCN2C1=O | – | – | – | – | – | – | 58% |
| C[C@@H]1NC(=O)[C@H](C)N(C)C(=O)[C@@H]2CCCN2C(=O)[C@@H](NC(=O)[C@H](Cc2ccccc2F)NC(=O)/C=C/C2CC=CCC2)COC(=O)[C@@H]2CCCN2C1=O (stereo partly drawn) [Example 28] (X4-[Phe(2-F)]SP[NMeA]AP; ester 2-C) | 4 µg/mL (≈ 5.43 µM) | 2 µg/mL | 8 µg/mL (≈ 10.9 µM) | 8 µg/mL (≈ 10.9 µM) | 1 µg/mL | – | – |
| CCCCC/C=C/C(=O)N[C@@H](Cc1cccc(Cl)c1)C(=O)N[C@H]1COC(=O)[C@@H]2CCCN2C(=O)[C@H](C)NC(=O)[C@H](C)N(C)C(=O)[C@@H]2CCCN2C1=O [Example 32] (X2-[Phe(3-Cl)]SP[NMeA]AP; ester 2-C) | 0.5 µg/mL (≈ 0.673 µM) | 2 µg/mL | 1 µg/mL (≈ 1.35 µM) | 4 µg/mL (≈ 5.38 µM) | 2 µg/mL | – | – |
| CC(C)/C=C(\F)C(=O)N[C@@H](Cc1cc(F)cc(F)c1)C(=O)N[C@H]1COC(=O)[C@@H]2CCCN2C(=O)[C@H](C)NC(=O)[C@H](C)N(C)C(=O)[C@@H]2CCCN2C1=O [Example 84] (X1-[Phe(3,5-F2)]SP[NMeA]AP; ester 2-C) | 0.5 µg/mL (≈ 0.68 µM) | 0.5 µg/mL | 0.5 µg/mL (≈ 0.68 µM) | 4 µg/mL (≈ 5.44 µM) | 0.25 µg/mL | – | – |

Continued, in another order:

| MIC [2] | MIC [3] | MIC [4] | MIC [5] | MIC [6] | Compound | ring closure, yield of all isomers ([1]; from C[C@@H]1C[C@@H](C(=O)OC[C@H](NC(=O)OCc2ccccc2)C(=O)O)N(C(=O)[C@H](C)NC(=O)[C@@H]2CCCCN2C(=O)[C@@H]2CCCN2C(=O)OC(C)(C)C)C1, 2.58 mM, 16.0 h) | ring closure, yield of all isomers ([1]; from C[C@H](NC(=O)[C@H](C)N(C)C(=O)[C@@H]1CCCN1C(=O)OC(C)(C)C)C(=O)N1CCC[C@H]1C(=O)OC[C@H](NC(=O)OCc1ccccc1)C(=O)O, 8.9 mM, 2.0 h) |
| --- | --- | --- | --- | --- | --- | --- | --- |
| < 0.125 µg/mL | 25 µg/mL | < 0.125 µg/mL | 0.25 µg/mL (≈ 0.342 µM) | < 0.125 µg/mL | CCCC/C=C/C(=O)N[C@@H](Cc1cc(F)cc(F)c1)C(=O)N[C@H]1COC(=O)[C@@H]2CCCN2C(=O)[C@H](C)NC(=O)[C@H](C)N(C)C(=O)[C@@H]2CCCN2C1=O [Example 1, (E)-Hept-2-enoic acid [(S)-2-(3,5-difluorophenyl)-1-((3S,7S,13S,16S,19S)-13,16,17-trimethyl-2,6,12,15,18-pentaoxo-5-oxa-1,11,14,17-tetraazatricyclo[17.3.0.0^7,11]docos-3-ylcarbamoyl)-ethyl]-amide] ({Heptenoyl(2E)}-[Phe(3,5-F2)]SP[NMeA]AP; ester 2-C) | – | – |
| < 0.125 µg/mL | 0.5 µg/mL | < 0.125 µg/mL | 0.5 µg/mL (≈ 0.626 µM) | < 0.125 µg/mL | C[C@@H]1C[C@H]2C(=O)OC[C@H](NC(=O)[C@H](Cc3cc(F)cc(F)c3)NC(=O)CCC3CCCCC3)C(=O)N3CCC[C@H]3C(=O)N3CCCC[C@H]3C(=O)N[C@@H](C)C(=O)N2C1 [Example 3, 3-Cylcohexylpropanoic acid [(S)-2-(3,5-difluorophenyl)-1-((3S,9S,13S,15R,19S,22S)-15,19-Dimethyl-2,8,12,18,21-pentaoxo-11-oxa-1,7,17,20-tetraaza-tetracyclo[20.4.0.0^3,7.0^13,17]hexacos-9-ylcarbamoyl)-ethyl]-amide] | – | – |
| < 0.125 µg/mL | 0.25 µg/mL | < 0.125 µg/mL | < 0.125 µg/mL | 0.125 µg/mL | CCCC/C=C/C(=O)N[C@@H](Cc1cc(F)cc(F)c1)C(=O)N[C@H]1COC(=O)[C@@H]2C[C@@H](C)CN2C(=O)[C@H](C)NC(=O)[C@H](C)N(C)C(=O)[C@@H]2CCCN2C1=O [Example 6] ({Heptenoyl(2E)}-[Phe(3,5-F2)]SP[NMeA]A[Pro(4R-Me)]; ester 2-C) | – | – |
| < 0.125 µg/mL | < 0.125 µg/mL | < 0.125 µg/mL | 0.25 µg/mL (≈ 0.335 µM) | < 0.125 µg/mL | CCCC/C=C/C(=O)N[C@@H](Cc1cc(F)cc(F)c1)C(=O)N[C@H]1COC(=O)[C@@H]2CCCN2C(=O)[C@H](C)NC(=O)[C@H](CO)N(C)C(=O)[C@@H]2CCCN2C1=O [Example 13] ({Heptenoyl(2E)}-[Phe(3,5-F2)]SP[NMeS]AP; ester 2-C) | – | – |
| 32 µg/mL (≈ 43.1 µM) | 16 µg/mL | 32 µg/mL (≈ 43.1 µM) | 64 µg/mL (≈ 86.2 µM) | 16 µg/mL | CCCC/C=C/C(=O)NC(Cc1cc(F)cc(F)c1)C(=O)N[C@H]1COC(=O)[C@@H]2CCCN2C(=O)CNC(=O)C2CCCCN2C(=O)[C@@H]2CCCN2C1=O (stereo partly drawn) [Example 61] ({Heptenoyl(2E)}-[ξPhe(3,5-F2)]SP[ξPip]GP; ester 2-C) | – | – |
| < 0.125 µg/mL | 0.25 µg/mL | < 0.125 µg/mL | 0.5 µg/mL (≈ 0.671 µM) | < 0.125 µg/mL | CCCC(C)/C=C/C(=O)N[C@@H](Cc1cc(F)cc(F)c1)C(=O)N[C@H]1COC(=O)[C@@H]2CCCN2C(=O)[C@H](C)NC(=O)[C@H](C)N(C)C(=O)[C@@H]2CCCN2C1=O (stereo partly drawn) [Example 75] (X5-[Phe(3,5-F2)]SP[NMeA]AP; ester 2-C) | – | – |
| < 0.125 µg/mL | 1 µg/mL | < 0.125 µg/mL | 0.25 µg/mL (≈ 0.325 µM) | 0.5 µg/mL | C=CCC/C=C/C(=O)N[C@@H](Cc1cc(F)cc(F)c1)C(=O)N[C@H]1COC(=O)[C@@H]2C[C@@H](C)CN2C(=O)[C@H](C)NC(=O)[C@@H]2CCCCN2C(=O)[C@@H]2CCCN2C1=O [Example 79] | – | – |
| 4 µg/mL (≈ 5.6 µM) | 2 µg/mL | 2 µg/mL (≈ 2.8 µM) | 32 µg/mL (≈ 44.8 µM) | 1 µg/mL | C[C@@H]1NC(=O)[C@H](C)N(C)C(=O)[C@@H]2CCCN2C(=O)[C@@H](NC(=O)[C@H](Cc2cc(F)cc(F)c2)NC(=O)C=C2CCC2)COC(=O)[C@@H]2CCCN2C1=O [Example 85] (X3-[Phe(3,5-F2)]SP[NMeA]AP; ester 2-C) | – | – |
